Experimental data from publication PMC8654832 (Scientific Reports, 2021).
Read-outs that look alike come from different tables or passages of the source.

Assays:
hCK2α = molecular target: T1, hCK2α (Homo sapiens, UniProt P68400); experiment: In vitro inhibition of hCK2α, ADP-Glo kinase assay; format: biochemical; conditions: 10 μM ATP, 10 μM peptide […], 20 min at 30 °C
T1 construct: made in house; host or cells: Escherichia coli BL21(DE3), plasmid pET28
Procedure: The compound inhibitory activity was monitored based on the luminescence measured with the SpectraMax iD3 Multi-Mode Microplate Reader (Molecular Devices, San Jose, CA, USA), using the previously described method with the aid of ADP-Glo kinase assay (Promega, Walldorf, Germany)[35]. The measurements were carried in 96-well plate in volume of 25 μl in 20 mM Tris–HCl buffer (pH 7.5), containing 100 ng of hCK2α (1 μl), 10 μM CK2 substrate peptide […] (Biaffin GmbH & Co KG), 10 μM ATP, 20 mM MgCl2 and 2.5 μl of ligand serially diluted in DMSO. The reaction was initiated by adding the enzyme and kept going for 20 min at 30 °C.

[1] = system: mitochondrial inner membrane potential (ΔΨ); experiment: Mitochondrial inner membrane potential, Rhodamine 123 fluorescence quenching in isolated mitochondria; conditions: for ligand concentration at which the membrane potential is almost fully uncoupled / ligand concentration at which relative fluorescence c.a. 0.95 was reached: Rhodamine 123, yeast mitochondria; for ligand concentration required to recover 50% of the initial fluorescence drop: Rhodamine 123, yeast mitochondria energized with EtOH, normalized to CCCP; for ligand concentration at which relative fluorescence c.a. 0.95 was reached: 1 = fully uncoupled (CCCP)
Text: In response to variations in ΔΨ this dye accumulates proportionally inside the mitochondrial matrix, where its fluorescence is quenched, thus fluorescence changes reflect the changes in the IM potential[33],[34]. […] All the data were normalized relative to the fluorescence intensity after addition CCCP (set to 1).
To quantify the effect of ligand addition we have compared the ligand concentrations required to recover 50% of the initial fluorescence drop (dotted line), i.e. the average of value after addition of EtOH and fully decoupled ΔΨ.
At the end of each experiment the carbonyl cyanide-m-chlorophenyl hydrazone (CCCP, the IM potential uncoupler) was added at 4 μM for the normalization.

[2] = Dynamic light scattering (DLS), aggregation in aqueous medium; format: physicochemical; conditions: 25 mM Tris–HCl pH 8, 0.5 M NaCl, 2% DMSO, 25 °C
Procedure: Experiments were carried out at 25 °C with the DynaPro NanoStar 192-DPN apparatus (Wyatt Technology) equipped with 661 nm laser. The autocorrelation function for the light scattered by solute placed in Eppendorf disposable cuvettes (50–2000 μl) was measured in the range of 0.5 μs– 0.1 s at solute concentration for which short-time ACF signal approached 0.2. Solutions with 2% (v/v) DMSO content were prepared in 25 mM Tris–HCl (pH 8, 0.5 M NaCl) filtered with 220 nm pore size syringe filter. All samples were centrifuged (9000 g) for 3 min immediately before the experiment.

[3] = system: A-431 (epidermoid carcinoma); experiment: Cell viability, MTT assay; conditions: read-out: Cell viability data, IC50
[4] = system: HEPG2 (hepatocellular carcinoma); experiment: Cell viability, MTT assay; conditions: read-out: Cell viability data, IC50
[5] = system: HCT116 (colorectal carcinoma); experiment: Cell viability, MTT assay; conditions: read-out: Cell viability data, IC50
[6] = system: HCT116p53-/- (colorectal carcinoma); experiment: Cell viability, MTT assay; conditions: 72 h, read-out: Cell viability data, IC50
[7] = molecular target: T2, catalytic subunit of human protein kinase CK2 (hCK2α) (Homo sapiens, UniProt P68400); experiment: Isothermal titration calorimetry (ITC), reverse mode
[8] = molecular target: T2, catalytic subunit of human protein kinase CK2 (hCK2α); experiment: Microscale thermophoresis (MST) pseudo-titration; format: binding; set-up: made in house; host or cells: Escherichia coli BL21(DE3), plasmid pET28
Procedure: Samples of protein (50 nM in 25 mM Hepes buffer pH 8 with 0.5 M NaCl and 1%DMSO content v/v) labeled with Monolith His-Tag Labeling Kit RED-tris-NTA kit (NanoTemper Technologies) were prepared with varying ligand concentration according to previously described protocol. The measurements were performed using Monolith NT.115 (NanoTemper Technologies) apparatus in standard capillaries (Nanotemper Technologies). For each ligand six independent pseudo-titration experiments, each with 16 ligand dilutions, were performed. […] The model of two independent binding sites, implemented in origin, has been already described and tested. It is worth noting that the used method of data treatment goes beyond the standard MST software capabilities.

[9] = molecular target: T2, catalytic subunit of human protein kinase CK2 (hCK2α); set-up: made in house; host or cells: Escherichia coli BL21(DE3), plasmid pET28; conditions: DSF, binding to hCK2α, cited from earlier work
[10] = second, weak site (solvent exposed region at alpha/beta interface), read-out: Kd2
[11] = strongly binding site (ATP-binding site), pH 8, 0.5 M NaCl, 1% DMSO, read-out: Kd1

T2 sequence (P68400 whole entry): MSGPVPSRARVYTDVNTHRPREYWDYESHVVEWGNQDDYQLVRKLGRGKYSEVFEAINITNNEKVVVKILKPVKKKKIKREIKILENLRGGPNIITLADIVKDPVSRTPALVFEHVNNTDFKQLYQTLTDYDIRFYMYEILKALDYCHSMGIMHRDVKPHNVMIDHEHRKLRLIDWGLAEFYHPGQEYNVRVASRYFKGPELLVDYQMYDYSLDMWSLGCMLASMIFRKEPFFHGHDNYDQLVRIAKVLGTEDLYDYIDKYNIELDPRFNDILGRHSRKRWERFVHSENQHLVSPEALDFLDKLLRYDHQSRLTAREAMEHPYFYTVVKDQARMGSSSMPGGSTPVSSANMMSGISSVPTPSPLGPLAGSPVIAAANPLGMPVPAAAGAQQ
T1 sequence (P68400 whole entry): as above

| Structure (SMILES) | IC50 (hCK2α) [nM] | ligand concentration at which the membrane potential is almost fully uncoupled [1] [µM] | ligand concentration required to recover 50% of the initial fluorescence drop [1] | ligand concentration at which relative fluorescence c.a. 0.95 was reached [1] [µM] | solute concentration at which the similar ACF distribution (nano-aggregates, radius 50–100 nm) was observed [2] [µM] | IC50 ([3]; Homo sapiens, A-431, 72 h) [nM] | IC50 ([4]; Homo sapiens, HepG2, 72 h) [nM] | IC50 ([5]; Homo sapiens, HCT-116, 72 h) [nM] | IC50 ([6]; Homo sapiens) [nM] | Kd [7] [nM] | Kd [8, 10] [nM] | Kd [8, 11] [nM] | ΔTm ([9]; literature data ref 20) | further results |
| --- | --- | --- | --- | --- | --- | --- | --- | --- | --- | --- | --- | --- | --- | --- |
| Brc1cc2nn[nH]c2cc1Br [HBBH, 5,6-dibromo-1H-benzotriazole, reference compound] | 1190 ± 530 | ~15 | > 5 µM | ~12 | 160 | 12000 ± 2000 | 18000 ± 4000 | 19000 ± 6000 | 13000 ± 3000 | 34 ± 4 | 327 ± 95 | 29 ± 13 |  | ΔTm ([9]; literature data ref 18): 7.4 ± 0.1[18] K |
| Brc1c(Br)c(Br)c2[nH]nnc2c1Br [TBBt, 4,5,6,7-tetrabromo-1H-benzotriazole] |  |  |  |  |  | 7800 ± 1200 | 13000 ± 2000 | 23000 ± 9000 | 48000 ± 18000 |  |  |  |  |  |
| Ic1cc2nn[nH]c2cc1I [HIIH, 5,6-diiodo-1H-benzotriazole] | 780 ± 290 | ~15 | > 5 µM | ~12 |  | 5300 ± 700 | 3300 ± 400 | 6100 ± 1300 | 9400 ± 1400 | 22 ± 4 | 374 ± 83 | 15 ± 7 | 8.3 ± 0.1[20] K |  |
| Brc1c(I)c(I)c(Br)c2[nH]nnc12 [BIIB, 4,7-dibromo-5,6-diiodo-1H-benzotriazole] | 230 ± 150 |  | less than 2 µM | ~4 | 40 | 2200 ± 300 | 1500 ± 300 | 1800 ± 300 | 2500 ± 200 | 1.3 ± 1.4 | 43 ± 22 | 3 ± 6 | 10.8 ± 0.1[20] K | ΔS1 ([7]; ITC, 25 °C, strongly binding site): 123 ± 10 J/mol/K; ΔS2 ([7]; ITC, second site): 93 ± 5 J/mol/K; Kd ([7]; read-out: Kd2, ITC, second site (solvent exposed region at alpha/beta interface)): 82 ± 42 nM |
| N.N.[Cl][Pt][Cl] [cisPt, cisplatin] |  |  |  |  |  |  |  |  |  |  |  |  |  | IC50 ([3]; A-431, MTT, 72 h, fitted to restricted low-concentration data): 2020 ± 60 nM; IC50 ([4]; HEPG2, MTT, 72 h, fitted to restricted low-concentration data): 2430 ± 140 nM; IC50 ([5]; HCT116, MTT, 72 h, fitted to restricted low-concentration data): 4700 ± 600 nM; IC50 ([6]; HCT116p53-/-, MTT, fitted to restricted low-concentration data): 2940 ± 130 nM |
